One data set has as its system B lymphocytes. Nature of the data set: B cell activation and maturation markers by flow cytometry in vitro. The data set is classed as cell-based, human. On the procedure:
FIG. 6 are bar graphs showing CPI-006 directly activates B lymphocytes. Purified B cells were incubated overnight with 10 μg/mL human IgG1 isotype control or CPI-006 or anti-IgM microbeads, a positive control for BCR stimulation. Expression of activation markers CD69, CD83, CD86, CD25 or MHC-II was measured by flow cytometry. Mean fluorescence intensity (MFI) was determined for each activation marker and was normalized to the untreated condition for each donor. The figure legend from top to bottom is representative of each group of four bars from left to right. (N=3-5 donors).
FIG. 7 illustrates expression of CD69 on B cells (CD19+CD3−) as measured by flow cytometry and reported by MFI. Human PBMCs were incubated overnight with 10 μg/mL CPI-006 with or without NECA over a range of concentrations or 10 μM APCP. Expression of CD69 on B cells (CD19+CD3−) was measured by flow cytometry and MFI is reported. Error bars represent mean±SD. *p<0.05, **p<0.01 as determined by t-test.
Human B cells were stimulated in vitro with CPI-006 or CPX-016 (1 ug/ml) or an isotype control for 3 days. IgD and CD27 expression were evaluated by flow cytometry. The mean fluorescence intensity (MFI) of each marker was determined in FlowJo and normalized to CPX-016. N=3 donors shown. For each group of two bars, left bar represents treatment with […] and right bar represents treatment with CPX-006.
FIG. 13A: Purified B cells from 3-5 healthy donors were incubated overnight with human IgG1 isotype control or CPI-006 (10 μg/mL) or anti-IgM microbeads, a positive control for BCR stimulation. Expression of activation markers CD69, CD83, CD86, or MHC-II was measured by flow cytometry. […] Mean fluorescence intensity (MFI) was determined for each marker and was normalized to the untreated or isotype control for each donor. […] Expression of CD69 (MFI) was measured by flow cytometry. […] CD69 and CD73 were measured on B cells by flow cytometry. […] Expression of CD69 on B cells (CD19^POSCD3^NEG) was measured by flow cytometry. […]

In data set [1] the test system is circulating CD73^POS B cells. In words: Phase 1 trial in cancer patients: peripheral blood immunophenotyping by flow cytometry. It is filed as in vivo, human. The note with it: ciforadenant monotherapy. (In general: In flow cytometry, cells or beads pass a laser one at a time.)
Another data set deals with T1, cellular CD73 (Homo sapiens, UniProt P21589).
T1 sequence (P21589 27-549): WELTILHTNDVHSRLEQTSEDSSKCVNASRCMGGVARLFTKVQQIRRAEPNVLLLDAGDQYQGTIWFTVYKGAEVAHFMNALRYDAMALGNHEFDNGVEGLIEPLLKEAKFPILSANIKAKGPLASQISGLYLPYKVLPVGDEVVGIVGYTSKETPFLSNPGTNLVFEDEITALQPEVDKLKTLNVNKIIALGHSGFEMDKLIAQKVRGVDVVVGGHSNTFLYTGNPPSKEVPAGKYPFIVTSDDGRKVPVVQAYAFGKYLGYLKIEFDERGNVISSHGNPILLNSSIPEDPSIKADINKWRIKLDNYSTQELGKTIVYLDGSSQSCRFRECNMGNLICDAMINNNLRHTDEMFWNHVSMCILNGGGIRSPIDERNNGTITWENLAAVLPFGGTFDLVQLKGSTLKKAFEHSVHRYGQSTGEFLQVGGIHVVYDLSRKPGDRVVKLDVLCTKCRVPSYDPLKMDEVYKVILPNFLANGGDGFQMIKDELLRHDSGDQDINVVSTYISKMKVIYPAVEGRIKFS
In words: CD73 catalytic activity on MDA-MB-231 cells (phosphate released from AMP). The note with it: 250 μM AMP, baseline from CRISPR CD73 knockout cells and 1 mM APCP.

The subject of a further data set is T cells. In words: T cell proliferation of anti-CD3/anti-CD28 activated PBMCs in the presence of AMP. It is filed as cell-based, human. As to conditions: 500 nM antibody, 13 donors. On the procedure:
FIG. 12A: CD73 catalytic activity was measured with MDA-MB-231 cells or MDA-MB-231 CD73 CRISPR cells in the presence of CPI-006, oleclumab, or 1 mM APCP by adding 250 μM AMP and measuring phosphate levels in the cell culture supernatant. FIG. 12B: Human PBMCs were incubated with AMP in the presence of CPI-006, oleclumab, or isotype control antibody at the saturating concentration of 300 nM. After 4 hours of incubation, the AMP remaining in the supernatant was quantified using the CellTiterGlo assay as described in the Methods. Percentage of inhibition was plotted. Data represent 9 individual donors and error bars represent mean±SD. ****p<0.0001 as determined by t-test. FIG. 12C: Human PBMCs were activated with anti-CD3/anti-CD28 in the presence of AMP and a range of doses of CPI-006, oleclumab, or isotype control antibody. T cell proliferation was assessed by flow cytometry. T cell proliferation for 13 donors treated with 500 nM CPI-006 or oleclumab or 890 nM isotype control. Error bars represent mean±SD. *p<0.05, ***p<0.001, and ****p<0.0001 as determined by t-test. […] After 4 days in culture, IFNg levels in the supernatant were measured by AlphaLISA (Perkin Elmer). […] Error bars represent mean±SD. *p<0.05 and **p<0.01 as determined by t-test. […]

Data set [2] concerns the target T2, CD73 expressed on primary human peripheral blood mononuclear cells (Homo sapiens, UniProt P21589).
T2 sequence (P21589 27-549): T1 sequence (P21589 27-549)
Nature of the data set: CD73 enzymatic activity on primary human PBMCs (AMP remaining, CellTiterGlo). The note with it: 300 nM antibody, 4 hours incubation with AMP, 9 donors. In general terms: In ATP-based viability assays light output follows the ATP content of the culture.

The next data set addresses T3, human CD73 (human, UniProt P21589 27-549).
T3 construct: also called CD73 antigen; 5'-nucleotidase
T3 sequence (looked up): T1 sequence (P21589 27-549)
In words: bio-layer interferometry (Octet HTX, 25 C; antibody on anti-human IgG Fc capture sensors, antigen in solution from 300 nM, 1:1 model). Background: Biolayer interferometry detects binding as a change in optical thickness at a sensor tip.

Turning to `CCNC(=O)[C@H]1O[C@@H](n2cnc3c(N)ncnc32)[C@H](O)[C@@H]1O` [NECA, 5′-(N-ethylcarboxamido)adenosine, reference compound], the “effect on induction of activation markers by CPI-006” value with B lymphocytes (human PBMCs, CPI-006 10 μg/mL overnight, NECA over a range of concentrations) is given as “did not block the induction of activation markers by CPI-006”.
Turning to `Cc1ccc(-c2nc(N)nc3c2nnn3Cc2cccc(CO[C@H]3CCOC3)n2)o1` [ciforadenant], the “B cell numbers or immunophenotype” value in data set [1] is “no changes in B cell numbers or immunophenotype”.
Take “oleclumab: another anti-CD73 antibody that binds a non-overlapping epitope; expressed as human lambda/IgG1-TM antibody”: the “B cell activation (CD69 expression) by other anti-CD73 antibodies” value with B lymphocytes (antibodies that do not cross-block CPI-006) is given as “fail to induce activation”. Moreover, the “CD73 activity (free phosphate levels generated upon conversion of AMP to adenosine)” value with cellular CD73 is recorded as “only partially reduced CD73 activity”. In addition, in the data set with T cells, the T cell proliferation result is given as “restored T cell proliferation in a subset of donors but did not reach the magnitude of the CPI-006 response”. In data set [2], the “enzymatic activity of CD73 on PBMCs” value is recorded as “partial effect on enzymatic activity”.

B1: CPI-006 (antibody, human IgG1, kappa, N297Q, V domains shown)
VH: QVQLVQSGAEVEKPGASVKVSCKASGYTFTSYWITWVRQAPGQGLEWMGDIYPGSGNTNYNEKFKTRVTITADKSTSTAYMELSSLRSEDTAVYYCAKEGGLTTEDYALDYWGQGTLVTVSS
VL: EIVLTQSPATLSLSPGERATLSCRASKNVSTSGYSYMHWYQQKPGQAPRLLIYLASNLESGIPPRFSGSGYGTDFTLTINNIESEDAAYYFCQHSRELPFTFGQGTKVEIKR
Usually Kd stands for the concentration at which binding is half-saturated. Lower therefore signals higher affinity. In the case of B1, the Kd with human CD73 worked out at 0.2 nM.

B2: CPI-006 immunoglobulin Fab fragments: Fab fragments of CPI-006 prepared using the Pierce Fab Preparation kit (antibody, chains of the INN, looked up, V domains shown)
VH: B1 VH
VL: EIVLTQSPATLSLSPGERATLSCRASKNVSTSGYSYMHWYQQKPGQAPRLLIYLASNLESGIPPRFSGSGYGTDFTLTINNIESEDAAYYFCQHSRELPFTFGQGTKVEIK
modifications: Fab
notes: Fab fragments of CPI-006 prepared using the Pierce Fab Preparation kit
As to B2, the “expression levels of CD69 with Fab fragments” value with B lymphocytes (purified B cells, overnight, equimolar to 10 μg/mL CPI-006) was “minimal effect on expression levels of CD69”.

For the origin of these results see US20240218073A1, “IMMUNOMODULATORY ANTI-CD73 ANTIBODIES AND USES THEREOF” (Corvus Pharmaceuticals, Inc., priority 2019, published 2024).
